# Data as given in US20250031689A1, “CRYOPRESERVATION COMPOSITIONS AND METHODS” (priority 2023, published 2025).
# Legend:
# [1] = test system: HEK293 cells; assay: Freeze-thaw (-80° C.) cryoprotection of HEK293 cells, post-thaw attachment/viability; type: cell-based
# Experimental: For the studies detailed below, the following procedures were used for preparation of cell cultures prior to cryopreservation: Both HEK-293 and HCT-115 cells were cultured in DMEM medium supplemented with 10% calf serum or 10% fetal calf serum. Two or three days prior to initiating a cryopreservation study, cells were seeded onto 100 mm tissue culture treated dishes in the above described culture medium and placed into a humidified, 5% CO2 incubator and allowed to propagate for 2 or 3 days. Preparation of growing cultures for cryostorage was performed as follows: Medium from 100 mm dishes containing growing cultures prepared as described above was aspirated and replaced with saline containing 0.5 mM EDTA and allowed to incubate for 2-3 minutes. This material was also aspirated and replaced with saline containing 0.25% trypsin and 0.25 mM EDTA. After incubating this second mixture for an additional 3-5 minutes and observing partial detachment of cells from dishes, cells were removed by using inertial force against the dish or by using a stream of saline or base culture medium to dislodge and collect cells from the dish. Cells harvested in this manner were separated by centrifugation (100 g×3 min), resuspended in the desired cryostorage solution, dispensed into polypropylene vials, positioned in microtube racks that were placed into a −80° C. freezer. Cells were kept frozen for 24-168 hours, at which time cryovials were removed to wet ice and cells thawed and plated into appropriate tissue culture vessels, typically 6 or 12 well plates. Cells were visualized with the aid of a Nikon TE300 microscope with an attached camera to allow documentation.
# As described above, we wished to test the ability of amino acid species to serve as primary cryoprotectants per the definition provided, i.e. at concentrations at which they provided osmotic pressure sufficient to induce cell dehydration. For this purpose we prepared solutions of several amino acids, including alanine, glycine, proline, glutamate, histidine, aspartate, leucine, lysine, phenylalanine, threonine, arginine, and serine. These were standardized to 1M and adjusted to pH 7.1-pH 7.3, where possible or to maximal concentrations when 1M was above the solubility such as histidine and leucine. These solutions were used by dilution in water to test for their ability to serve as a cryoprotectant or diluted to the desired target concentration in a variety of base media including saline, and the two growth mediums described above (DMEM and OptiMeM) in the studies with three different mammalian cell lines described below described below.
# FIG. 1. […] To test this capacity against a well-established cryoprotectant from those described above, HEK293 cultures were prepared as above in one of three base cryostorage mediums as noted below each pair of photographs depicted in panel A: (a) OptiMEM culture medium (ThermoFisher), a serum free growth medium, (b) DMEM culture medium containing 10% serum, or (c) 0.3M glutamate pH 7.2. One sample was prepared in each storage medium as described (labels on the bottom of each vertical pair of photographs), and an additional sample for each was prepared with 7.5% DMSO. 23 hours after plating thawed cells, cultures were visualized with 4× (upper) and 20× objectives (lower). […] The images were also analyzed using NIH Image to count cell numbers, depicted in panel B.
# FIG. 2. […] HEK293 cells were prepared as described above in OptiMEM medium and apportioned into 4 samples containing 0 mM, 100 mM, 200 mM, or 300 mM glutamate (labels below photograph). After completing a freeze-thaw cycle, each sample was plated and visualized 23 hours after plating.
# [2] = test system: ovine pre-adipocyte cells; assay: Freeze-thaw cryoprotection of cells suspended in saline, cell yield by ImageJ (FIG. 4); type: cell-based
# [3] = test system: cells; details: NaCl at concentrations where glutamate acts as a CPA
# Experimental: We developed a workflow that tested cryoprotection of cells suspended in physiological saline (150 mM NaCl), overcoming the need to resuspend centrifuged cells directly in a final cryoprotection buffer. […] Thus, in these studies, trypsinized cells were centrifuged as described above, but resuspended in saline prior to diluting into a test solution. The photographs in FIG. 4A depict representative fields at 4× magnification of 6-well plates seeded with ovine pre-adipocyte cells, frozen in solutions comprised of agents and concentrations indicated to the left of each row. The cells in each field were enumerated by using ImageJ (NIH) to carryout noise reduction and thresholding before enumerating cell particles (FIG. 4B). It should be noted that dilution of the initial saline sample contributed 0.105 M NaCl concentration in addition to the agents indicated to the left. To provide a positive sample, we also tested DMSO at three concentrations (1%, 3%, and 10%). […] Therefore, we also tested binary mixtures as well as a ternary and a quaternary mixture.
# We ascertained if such synergy might also exist with other well established cryoprotectants such as betaine or trehalose. […]
# [4] = test system: HCT 115 cells; assay: Freeze-thaw cryoprotection of HCT 115 cells, crystal violet stain density (cell yield); type: cell-based; details: glutamate in OptiMEM, 96 hours growth after thaw
# Experimental: FIG. 3. Cryoprotectant activity of glutamate requires concentrations greater than 50 mM. The dose response relationship of glutamate and its ability to impart cryoprotective activity to OptiMeM prompted the question of our findings being extensible to other cell types such as HCT 115 cells (FIG. 2). Cells were prepared as described above in OptiMEM medium containing either no additions, 7.5% DMSO, 50 mM glutamate, 150 mM glutamate, 250 mM glutamate, or 350 mM glutamate. Thawed cells were plated, washed at 24 hours to remove debris, and allowed to grow for a total of 96 hours, at which time they were fixed with 10% formol (15 minutes). Fixed cultures were stained with 0.2% crystal violet for 2 hours, destained in 4 changes of distilled water, dried and scanned on an Epson scanner at 1200 dpi (panel A). The density of stain from each culture, corresponding to cell yield, was quantified using ImageJ (NIH). The density of each culture was plotted in a bar graph and is shown in panel B. The stained 6-well plate containing each culture is shown in panel A, with insets showing a photograph from representative cultures visualized with a 4× objective after staining. The order of the samples in the plate shown in panel A is (left to right, top to bottom): media alone, media+7.5% DMSO, media+50 mM glutamate, media+150 mM glutamate, media+250 mM glutamate, media+350 mM glutamate. […]
# [5] = test system: Cygnus monkey spermatozoa; details: at 5-10 mM; cited from earlier work
# [6] = test system: RBCs; details: 1.5M proline, only in the presence of trehalose; cited from earlier work
# [7] = test system: mouse oocytes; details: 2M proline, in the presence of DMSO and ethylene glycol; cited from earlier work
smiles,measurement,setting,value
"C[S+](C)[O-] [DMSO, Dimethylsulfoxide]",attachment of cells at 23 hours after plating thawed cells,[1]; 7.5% DMSO in OptiMEM or DMEM containing 10% serum,do attach
same,cryoprotection as measured by cell yield,"[2]; DMSO at 1%, saline, -80° C.",cryoprotective activity was apparent
same,cryoprotection as measured by cell yield,"[2]; DMSO at 3% and 10%, saline, -80° C.",capable cryoprotective agent
[Cl-].[Na+] [NaCl],cryoprotection by increased ionic strength,[3],does not provide any significant cryoprotection
N[C@@H](CCC(=O)O)C(=O)O [glutamate],concentration required for cryoprotectant activity,[4],greater than 50 mM
same,post-thaw viability 23 hours after plating,[1]; 100 mM glutamate in OptiMEM,some extended post-thaw viability
same,post-thaw viability and attachment 23 hours after plating,[1]; 200 mM and 300 mM glutamate in OptiMEM,increased viability
same,entry into the growth cycle compared to cells in medium alone,[1]; 0.3M glutamate in OptiMEM,improved entry into the growth cycle
same,attachment of cells at 23 hours after plating thawed cells,[1]; 0.3M glutamate pH 7.2 as sole cryoprotectant,attachment at least to the level of either medium containing DMSO
same,post-thaw viability in initial survey of amino acids,"[1]; HEK293 cells, compared among several amino acids",highest degree of post-thaw viability
same,cryoprotection as measured by cell yield,"[2]; glutamate as a sole agent, comparable to 3% and 10% DMSO",significant cryoprotection
NC(=O)CC[C@H](N)C(=O)O [glutamine],increase in post-thaw recovery above that obtained with the control,[5],approximately 20%
NCC(=O)O [glycine],increase in post-thaw recovery above that obtained with the control,[5],approximately 20%
O=C(O)[C@@H]1CCCN1 [proline],hemolysis of frozen cells,[6],able to reduce hemolysis
same,increase in post-thaw recovery above that obtained with the control,[5],approximately 20%
same,increase in implantation rate,[7],6-10%
